{"source": "ChEMBL document CHEMBL1136470", "about": "“Rational design, synthesis and structure-activity relationships of a cyclic succinate series of TNF-alpha converting enzyme inhibitors. Part 1: lead identification” (Bioorg Med Chem Lett, 2003)", "key": {"[1]": {"assay": "Inhibition of aggrecanase"}, "Homo sapiens": {"organism": "Homo sapiens", "assay": "Compound tested for the in vitro inhibition of TNF-alpha production was determined by using LPS-stimulated human whole blood assay (WBA)", "type": "functional"}, "[2]": {"target": "Matrix metalloproteinase-9 (Homo sapiens, UniProt P14780)", "sequence (P14780 whole entry)": "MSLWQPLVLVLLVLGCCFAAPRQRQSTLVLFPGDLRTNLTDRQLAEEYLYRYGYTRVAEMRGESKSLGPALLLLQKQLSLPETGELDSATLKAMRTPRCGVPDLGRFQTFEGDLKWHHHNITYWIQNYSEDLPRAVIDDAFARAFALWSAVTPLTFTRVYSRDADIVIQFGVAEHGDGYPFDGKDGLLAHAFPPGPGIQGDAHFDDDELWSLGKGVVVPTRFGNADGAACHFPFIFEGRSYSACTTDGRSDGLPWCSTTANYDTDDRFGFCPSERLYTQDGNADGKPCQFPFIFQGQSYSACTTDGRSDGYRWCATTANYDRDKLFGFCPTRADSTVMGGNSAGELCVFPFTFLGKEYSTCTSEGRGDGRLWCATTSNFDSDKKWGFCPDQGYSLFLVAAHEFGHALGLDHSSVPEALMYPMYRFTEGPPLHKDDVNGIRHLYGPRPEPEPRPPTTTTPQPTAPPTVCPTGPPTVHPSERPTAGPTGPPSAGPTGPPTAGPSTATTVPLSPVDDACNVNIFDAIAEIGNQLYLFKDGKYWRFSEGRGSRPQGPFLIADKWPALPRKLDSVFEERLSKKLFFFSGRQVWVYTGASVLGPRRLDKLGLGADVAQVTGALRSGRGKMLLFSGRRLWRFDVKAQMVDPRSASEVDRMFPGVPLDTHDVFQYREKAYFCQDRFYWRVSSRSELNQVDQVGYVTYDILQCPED", "assay": "Inhibition of matrix metalloprotease-9 (MMP-9)"}, "[3]": {"target": "72 kDa type IV collagenase (Homo sapiens, UniProt P08253)", "sequence (P08253 whole entry)": "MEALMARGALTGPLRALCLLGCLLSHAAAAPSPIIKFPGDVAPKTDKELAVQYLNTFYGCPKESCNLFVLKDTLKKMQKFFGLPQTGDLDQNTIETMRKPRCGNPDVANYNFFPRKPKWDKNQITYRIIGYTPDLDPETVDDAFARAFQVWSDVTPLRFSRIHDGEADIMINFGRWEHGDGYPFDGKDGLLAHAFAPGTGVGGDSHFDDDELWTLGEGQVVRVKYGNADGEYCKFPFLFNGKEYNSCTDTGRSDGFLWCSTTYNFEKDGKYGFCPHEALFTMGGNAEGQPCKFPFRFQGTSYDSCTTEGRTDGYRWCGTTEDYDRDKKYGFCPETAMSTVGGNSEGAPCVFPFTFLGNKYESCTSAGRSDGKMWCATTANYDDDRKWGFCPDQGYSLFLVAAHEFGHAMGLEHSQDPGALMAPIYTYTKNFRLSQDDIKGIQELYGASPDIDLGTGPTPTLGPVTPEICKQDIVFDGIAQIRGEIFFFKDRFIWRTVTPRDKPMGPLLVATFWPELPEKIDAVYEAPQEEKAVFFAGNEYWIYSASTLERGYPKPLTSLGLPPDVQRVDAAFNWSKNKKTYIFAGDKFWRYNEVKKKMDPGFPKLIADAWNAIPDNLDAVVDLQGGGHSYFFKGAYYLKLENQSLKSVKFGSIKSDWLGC", "assay": "Inhibition of matrix metalloprotease-2 (MMP-2)"}, "[4]": {"target": "Disintegrin and metalloproteinase domain-containing protein 17 (Sus scrofa, UniProt O77636)", "sequence (O77636 whole entry, the tested form may be a part)": "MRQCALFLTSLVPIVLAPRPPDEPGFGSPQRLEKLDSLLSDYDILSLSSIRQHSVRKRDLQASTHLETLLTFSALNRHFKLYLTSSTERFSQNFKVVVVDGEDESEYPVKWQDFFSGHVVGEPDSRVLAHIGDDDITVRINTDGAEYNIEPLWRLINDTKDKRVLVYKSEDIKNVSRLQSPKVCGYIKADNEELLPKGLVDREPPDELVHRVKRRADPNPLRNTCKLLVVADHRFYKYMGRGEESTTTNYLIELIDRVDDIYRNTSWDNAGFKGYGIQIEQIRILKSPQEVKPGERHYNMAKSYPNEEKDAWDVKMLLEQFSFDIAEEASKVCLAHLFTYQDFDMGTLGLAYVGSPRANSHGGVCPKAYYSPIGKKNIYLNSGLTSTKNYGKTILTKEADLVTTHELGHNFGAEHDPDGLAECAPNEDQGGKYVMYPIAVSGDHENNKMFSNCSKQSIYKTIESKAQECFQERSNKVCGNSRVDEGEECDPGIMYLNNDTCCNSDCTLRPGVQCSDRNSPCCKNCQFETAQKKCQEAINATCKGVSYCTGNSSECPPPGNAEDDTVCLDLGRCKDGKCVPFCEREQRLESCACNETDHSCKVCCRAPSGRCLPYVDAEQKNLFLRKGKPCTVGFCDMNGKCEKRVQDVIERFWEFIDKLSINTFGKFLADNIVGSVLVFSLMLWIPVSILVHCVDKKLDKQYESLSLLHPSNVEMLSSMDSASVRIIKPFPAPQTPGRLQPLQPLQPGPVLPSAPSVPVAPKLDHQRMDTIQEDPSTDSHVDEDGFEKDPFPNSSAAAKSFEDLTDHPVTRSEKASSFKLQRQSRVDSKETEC", "assay": "Inhibition of porcine TACE"}, "Interstitial collagenase": {"target": "T1, Interstitial collagenase (Homo sapiens, UniProt P03956)", "T1 sequence (P03956 whole entry)": "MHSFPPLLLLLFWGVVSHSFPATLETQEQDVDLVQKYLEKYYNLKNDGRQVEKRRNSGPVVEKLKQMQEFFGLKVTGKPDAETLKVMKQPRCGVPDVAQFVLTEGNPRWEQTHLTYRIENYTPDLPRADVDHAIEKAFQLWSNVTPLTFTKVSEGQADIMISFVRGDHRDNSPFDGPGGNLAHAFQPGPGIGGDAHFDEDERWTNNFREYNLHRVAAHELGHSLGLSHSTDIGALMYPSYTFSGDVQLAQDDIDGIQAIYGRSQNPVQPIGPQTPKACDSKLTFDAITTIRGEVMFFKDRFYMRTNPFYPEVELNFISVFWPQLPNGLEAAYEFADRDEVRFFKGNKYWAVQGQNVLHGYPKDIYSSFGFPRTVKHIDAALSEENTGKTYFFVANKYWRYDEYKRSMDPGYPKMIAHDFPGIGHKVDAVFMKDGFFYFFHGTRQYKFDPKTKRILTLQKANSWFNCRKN", "assay": "Inhibition of matrix metalloprotease-1 (MMP-1)"}}, "data": [{"smiles": "O=C(NO)[C@H]1CCCC[C@@H]1C(=O)Nc1ccc(C#Cc2ccc3ncccc3c2)cc1", "values": [{"measurement": "Ki", "setting": "[1]", "value": "> 500", "unit": "nM"}, {"measurement": "IC50", "setting": "Homo sapiens", "value": "> 50000", "unit": "nM"}, {"measurement": "Ki", "setting": "[2]", "value": "> 2130", "unit": "nM"}, {"measurement": "Ki", "setting": "[3]", "value": "> 3330", "unit": "nM"}, {"measurement": "IC50", "setting": "[4]", "value": 7240, "unit": "nM"}, {"measurement": "Ki", "setting": "Interstitial collagenase", "value": "> 4950", "unit": "nM"}]}, {"smiles": "O=C(NO)[C@H]1CCCC[C@@H]1C(=O)Nc1ccc(COc2ccnc3ccccc23)cc1", "values": [{"measurement": "Ki", "setting": "[1]", "value": "> 500", "unit": "nM"}, {"measurement": "IC50", "setting": "Homo sapiens", "value": "> 50000", "unit": "nM"}, {"measurement": "Ki", "setting": "[2]", "value": "> 2130", "unit": "nM"}, {"measurement": "Ki", "setting": "[3]", "value": "> 3330", "unit": "nM"}, {"measurement": "IC50", "setting": "[4]", "value": 8, "unit": "nM"}, {"measurement": "Ki", "setting": "Interstitial collagenase", "value": "> 4950", "unit": "nM"}]}, {"smiles": "O=C(NO)[C@H]1CCCC[C@@H]1C(=O)Nc1ccc(OCc2ccccc2)cc1", "values": [{"measurement": "Ki", "setting": "[1]", "value": "> 500", "unit": "nM"}, {"measurement": "IC50", "setting": "Homo sapiens", "value": "> 50000", "unit": "nM"}, {"measurement": "Ki", "setting": "[2]", "value": "> 2130", "unit": "nM"}, {"measurement": "Ki", "setting": "[3]", "value": "> 3330", "unit": "nM"}, {"measurement": "IC50", "setting": "[4]", "value": 89, "unit": "nM"}, {"measurement": "Ki", "setting": "Interstitial collagenase", "value": "> 4950", "unit": "nM"}]}, {"smiles": "O=C1NCCCC[C@@H](C(=O)NCC(=O)N2CCOCC2)NC(=O)[C@H](Cc2ccc(-c3ccccc3C(F)(F)F)cc2)[C@@H](C(=O)NO)CCCO1", "values": [{"measurement": "IC50", "setting": "Homo sapiens", "value": "> 70", "unit": "nM"}, {"measurement": "Ki", "setting": "[2]", "value": "> 2000", "unit": "nM"}, {"measurement": "Ki", "setting": "[3]", "value": "> 2000", "unit": "nM"}, {"measurement": "Ki", "setting": "Interstitial collagenase", "value": "> 2000", "unit": "nM"}]}, {"smiles": "O=C(NO)[C@H]1CCCC[C@@H]1C(=O)Nc1ccc(COc2ccc3ncccc3c2)cc1", "values": [{"measurement": "Ki", "setting": "[1]", "value": "> 500", "unit": "nM"}, {"measurement": "IC50", "setting": "Homo sapiens", "value": "> 50000", "unit": "nM"}, {"measurement": "Ki", "setting": "[2]", "value": 876, "unit": "nM"}, {"measurement": "Ki", "setting": "[3]", "value": 1080, "unit": "nM"}, {"measurement": "IC50", "setting": "[4]", "value": 56, "unit": "nM"}, {"measurement": "Ki", "setting": "Interstitial collagenase", "value": "> 4950", "unit": "nM"}]}, {"smiles": "O=C(NO)[C@H]1CCC[C@@H]1C(=O)Nc1ccc(OCc2cc(Cl)cc(Cl)c2)cc1", "values": [{"measurement": "Ki", "setting": "[1]", "value": "> 500", "unit": "nM"}, {"measurement": "IC50", "setting": "Homo sapiens", "value": "> 50000", "unit": "nM"}, {"measurement": "Ki", "setting": "[2]", "value": "> 2130", "unit": "nM"}, {"measurement": "Ki", "setting": "[3]", "value": "> 3330", "unit": "nM"}, {"measurement": "IC50", "setting": "[4]", "value": 53, "unit": "nM"}, {"measurement": "Ki", "setting": "Interstitial collagenase", "value": "> 4950", "unit": "nM"}]}, {"smiles": "O=C(NO)[C@H]1CCC[C@@H]1C(=O)Nc1ccc(OCc2ccncc2)cc1", "values": [{"measurement": "Ki", "setting": "[1]", "value": "> 500", "unit": "nM"}, {"measurement": "IC50", "setting": "Homo sapiens", "value": "> 50000", "unit": "nM"}, {"measurement": "Ki", "setting": "[2]", "value": "> 2130", "unit": "nM"}, {"measurement": "Ki", "setting": "[3]", "value": "> 3330", "unit": "nM"}, {"measurement": "IC50", "setting": "[4]", "value": 620, "unit": "nM"}, {"measurement": "Ki", "setting": "Interstitial collagenase", "value": "> 4950", "unit": "nM"}]}, {"smiles": "O=C(NO)[C@H]1CCC[C@@H]1C(=O)Nc1ccc(Cc2ccncc2)cc1", "values": [{"measurement": "Ki", "setting": "[1]", "value": "> 500", "unit": "nM"}, {"measurement": "IC50", "setting": "Homo sapiens", "value": "> 50000", "unit": "nM"}, {"measurement": "Ki", "setting": "[2]", "value": "> 2130", "unit": "nM"}, {"measurement": "Ki", "setting": "[3]", "value": 675, "unit": "nM"}, {"measurement": "IC50", "setting": "[4]", "value": 210, "unit": "nM"}, {"measurement": "Ki", "setting": "Interstitial collagenase", "value": "> 4950", "unit": "nM"}]}, {"smiles": "O=C(NO)[C@H]1CCCC[C@@H]1C(=O)Nc1ccc(COc2cccc3ncccc23)cc1", "values": [{"measurement": "Ki", "setting": "[1]", "value": "> 500", "unit": "nM"}, {"measurement": "IC50", "setting": "Homo sapiens", "value": "> 50000", "unit": "nM"}, {"measurement": "Ki", "setting": "[2]", "value": 1360, "unit": "nM"}, {"measurement": "Ki", "setting": "[3]", "value": 585, "unit": "nM"}, {"measurement": "IC50", "setting": "[4]", "value": 45, "unit": "nM"}, {"measurement": "Ki", "setting": "Interstitial collagenase", "value": "> 4950", "unit": "nM"}]}, {"smiles": "O=C(NO)[C@H]1CCC[C@@H]1C(=O)Nc1ccc(OCc2ccccc2)cc1", "values": [{"measurement": "Ki", "setting": "[1]", "value": "> 500", "unit": "nM"}, {"measurement": "IC50", "setting": "Homo sapiens", "value": "> 50000", "unit": "nM"}, {"measurement": "Ki", "setting": "[2]", "value": "> 2130", "unit": "nM"}, {"measurement": "Ki", "setting": "[3]", "value": "> 3330", "unit": "nM"}, {"measurement": "IC50", "setting": "[4]", "value": 110, "unit": "nM"}, {"measurement": "Ki", "setting": "Interstitial collagenase", "value": "> 4950", "unit": "nM"}]}, {"smiles": "O=C(NO)[C@H]1CCC[C@@H]1C(=O)Nc1ccc(COc2ccnc3ccccc23)cc1", "values": [{"measurement": "Ki", "setting": "[1]", "value": "> 500", "unit": "nM"}, {"measurement": "IC50", "setting": "Homo sapiens", "value": "> 50000", "unit": "nM"}, {"measurement": "Ki", "setting": "[2]", "value": "> 2130", "unit": "nM"}, {"measurement": "Ki", "setting": "[3]", "value": "> 3330", "unit": "nM"}, {"measurement": "IC50", "setting": "[4]", "value": 39, "unit": "nM"}, {"measurement": "Ki", "setting": "Interstitial collagenase", "value": "> 4950", "unit": "nM"}]}]}
